{"source": "patent US11058756B2", "about": "“Compositions and methods of treating autoimmune disease by reducing enterococcus” (YALE UNIVERSITY, priority 2017, dated 2021)", "key": {"[1]": {"biological_target": "T1, AhR (Mus musculus, UniProt P30561)", "T1 construct": "mice were injected i.p. with 300 mg of CH223191 (a selective AhR antagonist; Sigma-Aldrich) or mock 5 days a week; from tissue; host or cells: whole animal: (NZWxBXSB)F1 hybrid mice", "T1 sequence (P30561 10-848)": "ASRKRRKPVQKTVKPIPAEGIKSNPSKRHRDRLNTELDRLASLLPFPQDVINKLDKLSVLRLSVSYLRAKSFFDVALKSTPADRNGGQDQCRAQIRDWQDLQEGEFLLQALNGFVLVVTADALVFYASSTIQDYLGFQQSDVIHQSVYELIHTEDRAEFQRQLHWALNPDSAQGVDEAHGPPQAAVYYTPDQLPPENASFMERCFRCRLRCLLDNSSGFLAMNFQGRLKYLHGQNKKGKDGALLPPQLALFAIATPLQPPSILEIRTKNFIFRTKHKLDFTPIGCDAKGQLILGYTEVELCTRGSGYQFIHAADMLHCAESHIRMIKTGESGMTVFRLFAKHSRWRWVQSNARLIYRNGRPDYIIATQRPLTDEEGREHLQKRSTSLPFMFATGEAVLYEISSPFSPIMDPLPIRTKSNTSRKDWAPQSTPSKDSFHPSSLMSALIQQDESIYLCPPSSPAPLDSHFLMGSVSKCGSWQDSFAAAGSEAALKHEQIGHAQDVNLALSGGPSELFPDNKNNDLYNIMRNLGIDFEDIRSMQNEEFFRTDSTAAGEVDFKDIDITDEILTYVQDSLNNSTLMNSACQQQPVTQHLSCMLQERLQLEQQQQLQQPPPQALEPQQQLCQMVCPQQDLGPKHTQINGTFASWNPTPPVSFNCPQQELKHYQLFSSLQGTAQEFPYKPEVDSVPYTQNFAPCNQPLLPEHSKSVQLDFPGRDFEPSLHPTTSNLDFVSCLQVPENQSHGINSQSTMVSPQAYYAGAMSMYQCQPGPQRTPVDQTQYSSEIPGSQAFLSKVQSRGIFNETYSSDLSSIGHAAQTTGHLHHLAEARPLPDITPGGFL", "assay": "AhR antagonist experiment in E. gallinarum-gavaged (NZWxBXSB)F1 mice", "type": "in vivo", "conditions": "4 weeks; for Th17-inducing effects of E. gallinarum (MLN Th17 cell frequency): CH223191 i.p. 300 μg/mouse/day, 5 days a week, ABX-pretreated, E. gallinarum gavaged, FIG. 20; for autoantibodies-inducing effects of E. gallinarum (serum anti-RNA and anti-dsDNA IgG): CH223191 i.p. 5 days a week, FIG. 4O-4P", "description": "(§1) Serum antibodies specific for dsDNA and b2GPI were determined using standardized ELISAs (anti-dsDNA antibody, Abcam; and, Mouse/Rat Apolipoprotein H Antibody, R&D Systems; respectively). Anti-RNA was determined by ELISA using defined positive controls (Human/Mouse RNA Polymerase II Antibody, R&D systems). Anti-ERV gp70 ICs and ERV gp70 protein were determined by OD450 signal comparisons (Evans et al., 1990, J Virol, 64, 6176-6183). For anti-dsDNA ELISAs, DNA-BIND™ (Corning) plates were coated with 100 μg/ml salmon sperm DNA (Fisher Scientific) and blocked in 0.1M PBS, 3.0% BSA, 5.0% FBS. The serum was diluted 1:1000 for the assay and incubated for 1 hour at 37° C. Wells were washed and incubated for 1 hour at 37° C. with rabbit anti-mouse IgG (Fisher Scientific) conjugated to HRP and developed with TMB substrate solution. 2M sulfuric acid (Sigma) solution was used to stop development. The concentration of anti-dsDNA was determined by reading the absorbance at 450 nm/570 nm reference.\n(§2) For anti-RNA ELISAs, DNA-BIND™ (Corning) plates were coated with […] yeast RNA (Ambion) and blocked in 0.1M PBS, 0.05% Tween-20, 5.0% FBS. The serum was diluted 1:1000 for the assay and incubated for 1 hour at 37° C. Wells were washed and incubated for 1 hour at 37° C. with rabbit anti-mouse IgG (Fisher Scientific) conjugated to HRP and developed with TMB substrate solution. 2M sulfuric acid (Sigma) solution was used to stop development. The concentration of anti-RNA IgG was determined by reading the absorbance at 450 nm/570 nm reference.\nFor direct ex vivo intracellular cytokine detection, cells isolated from small intestinal lamina propria, MLN or spleen were immediately treated with GolgiStop (BD Bioscience) and surface-stained in FACS buffer (PBS, 2% bovine serum albumin, 0.2 mg of sodium azide, 2 mM EDTA) for 30 minutes in the dark at room temperature with fluorescently conjugated antibodies specific for CD3, CD4, CD11b, CD11c, CD44, CD62L, CD19, CD45, CD45R (B220), CXCR5, GITR, IL-17, IFN-g, Ly6C, NK1.1, PDCA-1, PD-1 and PSGL-1. After staining for surface antigens, some B cells and T cells were stained for intracellular cytokines using intracellular cytokine fixation buffer (eBioscience) and fluorescently conjugated antibodies specific for IL-17, IFN-g and FoxP3 (eBioscience) for 30 minutes in the dark at room temperature. Cell viability was assessed with Zombie NIR Fixable Viability Kit (BioLegend).\n(NZWxBXSB)F1 mice were treated with broad-spectrum antibiotics (vancomycin, ampicillin, neomycin and metronidazole) from 10 weeks to 14 weeks of age. 24 hours later mice were gavaged with E. gallinarum every week for 4 weeks. […]"}, "[2]": {"tested_on": "E. gallinarum", "assay": "Assessment of bacterial translocation and tissue burden (anaerobic tissue cultures, CFU)", "type": "in vivo, mouse", "conditions": "(NZWxBXSB)F1 mice, antibiotics in drinking water; 16-18 weeks of age; FIG. 1K-1N", "excerpt": "Mice were cohoused for 3 to 4 weeks before antibiotic treatment to allow for equilibration of the microbiota. Single antibiotic or broad-spectrum antibiotic administration consisted of metronidazole (1 g/liter; Fisher Scientific), neomycin (1 g/liter; Fisher Scientific), ampicillin (1 g/liter; Sigma) and vancomycin (0.5 g/liter; Acros Organics) in the drinking water for up to 22 weeks or a targeted regiment for 2 weeks and then replaced with regular water for the duration of the experiment. For broad-spectrum antibiotic experiments (vancomycin, ampicillin, metronidazole, and neomycin combined), sweetener (Equal, 4 g/L) was added to both the antibiotics and control water due to the metallic taste of metronidazole. […] E. gallinarum was grown at 37° C. in Gifu Anaerobic Broth (HIMEDIA Laboratories) to early stationary phase under anaerobic conditions (82% N2, 15% CO2, 3% H2 by volume) in an anaerobic chamber and diluted in PBS to 10^7 CFUs.\n14-, 16- and 18-week-old mice underwent sterile laparotomy and nose, mouth, small intestine (luminal and adherent fractions), mesenteric veins, mesenteric lymph nodes (MLN), liver and spleen were aseptically collected in BBL Mycoflask Thioglycollate (Fluid) Prepared Media (BD Diagnostic Systems) and incubated for 72 hours in anaerobic conditions at 37° C. Gifu Media Agar plates were streaked with the content from the BBL Mycoflask Thioglycollate and incubated for 48 hours in an anaerobic chamber at 37° C. Colony Formation Units (CFU) were counted and concentration determined per milligram of tissue. Single colonies were grown in Gifu anaerobic media for 48 hours in an anaerobic chamber at 37° C. and aliquots from each sample were collected and centrifuge for 10 minutes at 10000×g. DNA was extracted from bacterial pellets using DNeasy Blood and Tissue kit (Qiagen) and submitted to PCR amplification of the 16S region and Sanger sequencing. In addition, purified DNA was used for eubacterial, Enterococcus genus and Enterococcus gallinarum PCR assays."}, "[3]": {"tested_on": "(NZWxBXSB)F1 mice", "assay": "Oral antibiotics in drinking water: mortality, clinical outcome, proteinuria and organ histology in the autoimmune hybrid model", "type": "in vivo, mouse", "text": "6-week-old male (NZWxBXSB)F1 mice and C57BL/6J mice were used in this study except if noted otherwise. (NZWxBXSB)F1 were bred by mating NZW/LaJ females with BXSB/MpJ males obtained from Jackson Laboratory (Bar Harbor, Me., USA). Parental littermates of (NZWxBXSB)F1 were randomly mixed with littermates from other parental cages 21 days after birth to equilibrate the microbiomes from different cages and parental origin. All mice were maintained in a specific-pathogen-free environment. (NZWxBXSB)F1 mice were provided with water and a standard laboratory diet ad libitum (2018 Harlan Teklad, South Easton, Mass., USA). They were supplied with hardwood chips as bedding and were housed in a temperature-controlled, air-conditioned room on a 12-hr light-dark cycle. Germ-free (GF) C57BL/6 mice were kept under sterile conditions in CBC's (Class Biologically Clean, Madison, Wis., USA) Quad flexible film isolators (Softwall), exposed to a 12-hr light/dark cycle and provided standard, autoclaved tap water and mouse chow (2018S Harlan Teklad, South Easton, Mass., USA) ad libitum. To exclude a Th17 bias, a PCR for segmented filamentous bacteria (SFB) was performed on fecal DNA from all mice involving Th17 studies. Fecal SFB detection at 6-8 weeks of age that correlates with ileal SFB colonization was performed as described (Barman et al., 2008, Infect Immun, 76, 907-915; Kriegel et al., 2011, Proc Natl Acad Sci USA, 108, 11548-11553). All Th17 data was derived from SFB-negative animals.\n(§3) Mice were cohoused for 3 to 4 weeks before antibiotic treatment to allow for equilibration of the microbiota. Single antibiotic or broad-spectrum antibiotic administration consisted of metronidazole (1 g/liter; Fisher Scientific), neomycin (1 g/liter; Fisher Scientific), ampicillin (1 g/liter; Sigma) and vancomycin (0.5 g/liter; Acros Organics) in the drinking water for up to 22 weeks or a targeted regiment for 2 weeks and then replaced with regular water for the duration of the experiment. For broad-spectrum antibiotic experiments (vancomycin, ampicillin, metronidazole, and neomycin combined), sweetener (Equal, 4 g/L) was added to both the antibiotics and control water due to the metallic taste of metronidazole. Twenty-four hours after cessation of antibiotic water, mice were administered 1×10^6 CFUs of vancomycin-resistant E. gallinarum via oral gavage, isolated from liver tissue of a vancomycin-treated mouse that continued to show signs of autoimmune disease (high-level resistance was confirmed by vanC gene PCR). E. gallinarum was grown at 37° C. in Gifu Anaerobic Broth (HIMEDIA Laboratories) to early stationary phase under anaerobic conditions (82% N2, 15% CO2, 3% H2 by volume) in an anaerobic chamber and diluted in PBS to 10^7 CFUs.\nSamples were obtained at autopsy and fixed in 10% neutral formalin, and histological sections were stained with hematoxylin and eosin (H&E) and scored in a blinded fashion. Glomerulonephritis was scored on a scale of 0-4 based on the intensity and extent of histopathological changes (Klopfleisch, 2013, BMC Vet Res, 9, 123). A grade of 0 was given to kidneys without glomerular lesions; grade 1 consisted of minimal thickening of the mesangium; grade 2 contained noticeable increases in both mesangial and glomerular cellularity; grade 3 was characterized by the preceding conditions with superimposed inflammatory exudates and capsular adhesions; and grade 4 consisted of obliterated glomerular architecture in greater than 70% of glomeruli. […]"}, "[4]": {"tested_on": "(NZWxBXSB)F1 mice", "assay": "Serum ELISAs for anti-dsDNA, anti-RNA, anti-β2GPI IgG, ERV gp70 protein and anti-ERV gp70 immune complexes", "type": "in vivo, mouse", "conditions": "single antibiotic in drinking water; 16 weeks of age; FIG. 1B-1C", "text": "as §3, §1, §2\nFor anti-b2GPI ELISAs, Corning® 96-well EIA/RIA easy Wash™ clear flat-bottom polystyrene high-bind microplates were coated with […] recombinant b2GPI/ApoH (R&D Systems) and blocked in Pierce Protein-Free (PBS) Blocking Buffer (Thermo Scientific). The serum was diluted 1:100 for the assay and incubated at room temperature for 2 hours on a shaker. Wells were washed and incubated while shaking for 30 minutes at room temperature with goat anti-mouse IgG (Fisher Scientific) conjugated to HRP and developed with TMB substrate solution. 2M sulfuric acid (Sigma) solution was used to stop development. The concentration of anti-b2GPI was determined by reading the absorbance at 450 nm/650 nm reference. […]"}, "[5]": {"conditions": "listed as AHR-selective antagonist"}}}
{"compound": "Cc1ccccc1N=Nc1ccc(NC(=O)c2ccnn2C)c(C)c1", "note": "[CH223191]", "values": [{"measurement": "Th17-inducing effects of E. gallinarum (MLN Th17 cell frequency)", "setting": "[1]", "result": "reverses"}, {"measurement": "Th17-inducing effects of E. gallinarum (MLN Th17 cell frequency)", "setting": "[1]; [5]", "result": "abrogated"}, {"measurement": "autoantibodies-inducing effects of E. gallinarum (serum anti-RNA and anti-dsDNA IgG)", "setting": "[1]", "result": "reverses"}, {"measurement": "autoantibodies-inducing effects of E. gallinarum (serum anti-RNA and anti-dsDNA IgG)", "setting": "[1]; [5]", "result": "abrogated"}]}
{"compound": "neomycin", "values": [{"measurement": "Translocation (bacterial growth in mesenteric veins, MLN, liver, spleen)", "setting": "[2]", "result": "only to a lesser degree"}, {"measurement": "clinical outcomes", "setting": "[3]; neomycin 1.0 g/L in drinking water", "result": "did not alter"}]}
{"compound": "CC1(C)S[C@@H]2[C@H](NC(=O)[C@H](N)c3ccccc3)C(=O)N2[C@H]1C(=O)O", "note": "[ampicillin]", "values": [{"measurement": "Mortality", "setting": "[3]; single antibiotic in drinking water from 6 weeks of age, followed for 30 weeks or until death, FIG. 1A", "result": "prevented"}, {"measurement": "autoimmune manifestations (proteinuria, organ histology scores)", "setting": "[3]; single antibiotic in drinking water, FIG. 1D-1I", "result": "prevented"}, {"measurement": "lupus-related autoantibodies (serum anti-dsDNA and anti-RNA IgG)", "setting": "[4]", "result": "prevented"}]}
